In PubChem BioAssay (NCI):
Values joined by “and” are separate entries in the source; they are usually repeats but may differ in a detail not shown here. Equal entries are not always repeated.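 Exposure lasted 48 hours, with cells grown in 96-well plates and compounds tested at five concentrations. GI50 is the concentration that inhibits growth by half. Definition used: TGI = concentration required for complete inhibition of growth.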

Legend:
Test in all cases: NCI-60 cell line screen, 48 h
A498 renal = system: A498 renal
EKVX NSCLC = system: EKVX NSCLC
KM12 colon = system: KM12 colon
MDA-MB-435 = system: MDA-MB-435
OVCAR-5 ovarian = system: OVCAR-5 ovarian
OVCAR-8 ovarian = system: OVCAR-8 ovarian
RPMI-8226 leukemia = system: RPMI-8226 leukemia
RXF 393 renal = system: RXF 393 renal
SF-268 CNS = system: SF-268 CNS
SNB-19 CNS = system: SNB-19 CNS

SMILES | GI50 (A498 renal) | TGI (A498 renal) | GI50 (EKVX NSCLC) | TGI (EKVX NSCLC) | GI50 (KM12 colon) | TGI (KM12 colon) | GI50 (MDA-MB-435) | TGI (MDA-MB-435) | GI50 (OVCAR-5 ovarian) | TGI (OVCAR-5 ovarian) | GI50 (OVCAR-8 ovarian) | TGI (OVCAR-8 ovarian) | GI50 (RPMI-8226 leukemia) | TGI (RPMI-8226 leukemia) | GI50 (RXF 393 renal) | TGI (RXF 393 renal) | GI50 (SF-268 CNS) | TGI (SF-268 CNS) | GI50 (SNB-19 CNS) | TGI (SNB-19 CNS)
CN(CCCl)c1ccc(/C=C/C2=[N+](C)c3ccccc3C2(C)C)cc1 | 1.34 µM | 12.6 µM | 0.863 µM | 14.9 µM | 0.355 µM | 1.55 µM | 0.415 µM | 2.46 µM | 3.71 µM | 17.1 µM | 0.353 µM | 12 µM | 0.331 µM | 2.46 µM | 1.57 µM | 10.5 µM | 0.691 µM | 13.5 µM | 0.495 µM | 15.5 µM
Cc1nc2n(c(=O)c1CCN1CCC(c3noc4cc(F)ccc34)CC1)CCCC2 | > 50 µM | > 50 µM | > 50 µM | > 50 µM | > 50 µM | > 50 µM | > 50 µM | > 50 µM | > 50 µM | > 50 µM | > 50 µM | > 50 µM | > 50 µM | > 50 µM | > 50 µM | > 50 µM | > 50 µM | > 50 µM | > 50 µM | > 50 µM
N#Cc1ccc(C(c2ccc(C#N)cc2)n2cncn2)cc1 |  | > 5000 µM | > 5000 µM | > 5000 µM | > 5000 µM | > 5000 µM | > 5000 µM | > 5000 µM | > 5000 µM | > 5000 µM |  | > 5000 µM | > 5000 µM | > 5000 µM | 18.3 µM |  | > 5000 µM | > 5000 µM | > 5000 µM | > 5000 µM
CCc1nc(N)nc(N)c1-c1ccc(NCCc2ccccc2)c([N+](=O)[O-])c1 |  | 43.4 µM |  | 54 µM |  | > 57 µM |  | > 73 µM |  | > 73.4 µM |  | 89 µM |  | 7.35 µM |  | 40.7 µM |  | > 62.5 µM |  | > 63.1 µM
CCOC(=O)Nc1ccc(-c2nc(-c3cccc(OC)c3)c(-c3ccnc(Br)c3)[nH]2)cc1 | 1.94 µM | 7.06 µM | 2.45 µM | 8.8 µM | 2.51 µM | 9.06 µM | 2.73 µM | 9.54 µM | 3.56 µM | > 100 µM | 2.98 µM | > 100 µM | 0.794 µM | 3.49 µM | 0.712 µM | 2.94 µM | 3.26 µM | > 100 µM | 2.96 µM | > 100 µM
Cc1nc(N)sc1C(=O)Nc1cc(C(=O)NCCCN(C)C)n(C)c1 | > 100 µM | > 100 µM | > 100 µM | > 100 µM | > 100 µM | > 100 µM | > 100 µM | > 100 µM | > 100 µM | > 100 µM | > 100 µM | > 100 µM | 60.1 µM | > 100 µM | > 100 µM | > 100 µM | > 100 µM | > 100 µM | > 100 µM | > 100 µM
CC(=O)[O][Hg][c]1ccccc1 | 1.11 µM | 2.37 µM | 1.46 µM | 3.98 µM | 1.6 µM | 3.04 µM | 0.808 µM | 2.19 µM | 2.19 µM | 3.84 µM | 0.921 µM | 3.96 µM | 0.283 µM | 1.3 µM | 0.234 µM | 0.797 µM | 1.14 µM | 2.64 µM | 1.46 µM | 3.05 µM
COc1ccc(Cn2cc3c(c2-c2cc(OC)c(OC)c(OC)c2)CCc2cnoc2-3)cc1[N+](=O)[O-] | 0.617 µM |  | 1.43 µM | > 100 µM | 0.583 µM | > 93.7 µM | 0.219 µM | 0.612 µM | 5.08 µM | > 100 µM | 3.35 µM | > 100 µM | 1.39 µM | > 29.9 µM | 1.02 µM | 6.22 µM | 3.79 µM | > 100 µM | 1.87 µM | > 100 µM
COc1cc2nc3cc([N+](=O)[O-])ccc3c(NCCCNCC(C)(C)O)c2cc1OC | 0.216 µM | 1.33 µM | 1.21 µM | 3.97 µM | 0.41 µM | 1.6 µM | 0.4 µM | 1.55 µM | 0.465 µM | 3.39 µM | 0.304 µM | 1.82 µM | 0.565 µM | 4.01 µM | 0.297 µM | 1.24 µM | 0.308 µM | 1.26 µM | 0.303 µM | 1.41 µM
COc1cccc2[nH]c(-c3ccccn3)nc12 |  | > 100 µM |  | > 100 µM |  | > 100 µM |  | > 100 µM |  | > 100 µM |  | > 100 µM |  | > 100 µM |  | > 100 µM |  | > 100 µM |  | > 100 µM
O=C(OCc1ccc2c(Cl)cc(Cl)c(O)c2n1)c1cc2ccccc2[nH]1 | 1.63 µM | 3 µM | 1.49 µM | 3 µM | 1.69 µM | 3.38 µM | 0.318 µM | 1.04 µM | 0.65 µM | 1.97 µM | 0.818 µM | 3.05 µM | 0.279 µM | 0.828 µM | 0.338 µM | 1.08 µM | 1.5 µM | 2.97 µM | 1.59 µM | 2.99 µM
Cc1c(NC(=O)OC[C@@H]2COCCN2)cn2ncnc(Nc3ccc4c(cnn4Cc4cccc(F)c4)c3)c12 | 0.532 µM and 1.02 µM | > 10 µM and 15.5 µM | 0.716 µM and 0.257 µM | > 10 µM and 14.2 µM | > 10 µM and 11.5 µM | > 10 µM and 25.5 µM | > 10 µM and 9.97 µM | > 10 µM and 23 µM | > 10 µM and 8.82 µM | > 10 µM and 21.4 µM | > 10 µM and 8.88 µM | > 10 µM and 28.7 µM | 5.35 µM and 6.35 µM | > 10 µM and 28.2 µM | 2.89 µM and 4.15 µM | > 10 µM and 15.3 µM | > 10 µM and 7.18 µM | > 10 µM and 24.5 µM | > 10 µM and 9.04 µM | > 10 µM and 23.2 µM
